Data on 10 compounds can be found in ChEMBL document CHEMBL4342414, “Activity of 2,6,9-trisubstituted purines as potent PDGFRα kinase inhibitors with antileukaemic activity” (Eur J Med Chem, 2019).

pIC50: −log10 of the molar value. The source made the active and inactive calls. The calls are words filed in the database; no cut-off is given here.

Series [1] relates to EOL1. Put plainly: Cytotoxicity against FIP1L1-PDGFRA positive human EOL-1 cells assessed as growth inhibition after 72 hrs by resazurin dye-based fluorescence analysis. Format: functional. To be noted: EOL1, 72 h.
The target of series [2] is Platelet-derived growth factor receptor alpha (Homo sapiens, UniProt P16234, V561D). Put plainly: biochemical. Type of series: cell-based, Sf9.
Series [3] is described as follows: Cytotoxicity against human CEM cells assessed as growth inhibition after 72 hrs by resazurin dye-based fluorescence analysis. Format: cell-based. The conditions noted are these: CEM (CCRF-CEM) cells.
In another series the test system is K562. Briefly: Cytotoxicity against human K562 cells assessed as growth inhibition after 72 hrs by resazurin dye-based fluorescence analysis. Type of series: functional. To be noted: K562, 72 h.
For a further series, the system named is HCC827. Put plainly: Cytotoxicity against human HCC827 cells assessed as growth inhibition after 72 hrs by resazurin dye-based fluorescence analysis. Type of series: functional. The conditions noted are these: HCC827, 72 h.
A short description of series [4]: Cytotoxicity against human BJ cells assessed as growth inhibition after 72 hrs by resazurin dye-based fluorescence analysis. Format: cell-based.
Series [5] in a line: Selectivity index, ratio of GI50 for human BJ cells to GI50 for FIP1L1-PDGFRA positive human EOL-1 cells after 72 hrs by resazurin dye-based fluorescence analysis.
Series [6] in a line: Chemical stability of compound. Type of series: physicochemical.
Series [7] deals with EOL1. Briefly: Induction of cell cycle arrest at G1 phase in human FIP1L1-PDGFRA positive EOL-1 cells at 10 nM after 24 hrs by propidium iodide staining based flow cytometry. Type of series: functional.
For series [8], the system named is EOL1. Briefly: Induction of apoptosis in human FIP1L1-PDGFRA positive EOL-1 cells assessed as increase in cell accumulation at subG1 phase at >=10 nM after 24 hrs by propidium iodide staining based flow cytometry relative to control. Type of series: functional.

Chain of Platelet-derived growth factor receptor alpha (P16234 24-1089 V561D limits assumed): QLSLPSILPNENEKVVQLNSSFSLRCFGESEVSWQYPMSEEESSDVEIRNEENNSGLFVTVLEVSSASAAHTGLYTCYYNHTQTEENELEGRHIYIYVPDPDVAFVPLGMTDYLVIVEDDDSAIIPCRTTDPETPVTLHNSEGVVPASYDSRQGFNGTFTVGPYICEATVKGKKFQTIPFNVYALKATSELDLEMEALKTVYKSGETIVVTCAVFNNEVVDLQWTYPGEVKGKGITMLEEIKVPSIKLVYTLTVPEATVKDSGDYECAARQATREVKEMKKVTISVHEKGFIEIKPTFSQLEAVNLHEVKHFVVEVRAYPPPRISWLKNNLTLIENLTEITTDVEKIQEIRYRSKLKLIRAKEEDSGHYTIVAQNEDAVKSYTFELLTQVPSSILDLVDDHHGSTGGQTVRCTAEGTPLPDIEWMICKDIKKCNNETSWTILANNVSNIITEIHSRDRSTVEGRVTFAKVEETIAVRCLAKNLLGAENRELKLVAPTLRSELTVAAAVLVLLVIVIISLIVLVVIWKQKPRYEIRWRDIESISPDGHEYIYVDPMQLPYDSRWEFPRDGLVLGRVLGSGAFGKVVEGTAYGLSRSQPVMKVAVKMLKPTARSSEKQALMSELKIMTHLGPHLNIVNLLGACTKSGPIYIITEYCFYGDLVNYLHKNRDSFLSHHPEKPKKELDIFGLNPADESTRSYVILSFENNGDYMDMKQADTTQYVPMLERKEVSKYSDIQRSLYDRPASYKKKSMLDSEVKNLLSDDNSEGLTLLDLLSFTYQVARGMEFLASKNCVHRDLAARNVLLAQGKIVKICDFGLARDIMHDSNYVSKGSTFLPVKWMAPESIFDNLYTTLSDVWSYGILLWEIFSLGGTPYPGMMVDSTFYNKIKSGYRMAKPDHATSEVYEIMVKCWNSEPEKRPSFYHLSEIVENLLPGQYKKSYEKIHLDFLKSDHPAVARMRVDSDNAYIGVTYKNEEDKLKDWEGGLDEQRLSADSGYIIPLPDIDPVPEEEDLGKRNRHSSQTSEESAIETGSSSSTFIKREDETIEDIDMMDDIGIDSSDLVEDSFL

Take `N[C@H]1CC[C@H](Nc2nc(Nc3ccccc3CN3CCOCC3)c3ncn(C4CCCC4)c3n2)CC1`: the GI50 with EOL1 [1] amounted to 4.52 µM; in the series with K562 it was 4.11 µM; with HCC827, 22.2 µM. The same compound showed a pIC50 in series [2] of under 4.70. Moreover, the figures for the 50% growth inhibitory concentration (GI50) at 72 h in series [3] and in series [4] were 18.1 µM and 30.4 µM, respectively. The RatioGI50 in [5] is given as 7.
`N[C@H]1CC[C@H](Nc2nc(Nc3ccc(-n4cccn4)cc3)c3ncn(C4CCCC4)c3n2)CC1`: the GI50 with EOL1 [1] was 0.008 µM; in the series with K562, 0.982 µM; with HCC827, 0.847 µM. The GI50 at 72 h in series [3] turned out to be 0.933 µM; in series [4], 10.4 µM. The Stability result in series [6] is reported as “Unstable”.
On to `NCCCCNc1nc(Nc2ccccc2CN2CCOCC2)c2ncn(C3CCCC3)c2n1`, for which the values for the GI50 in the series on EOL1 [1], in the series with K562 and in the series with HCC827 were 6.41 µM, 12.2 µM and 26.3 µM, respectively. This compound had a pIC50 in [2] of under 4.70. Further, the GI50 at 72 h in [3] was determined as 25.7 µM; in series [4], 37.5 µM. Also, the RatioGI50 in [5] is 6.
In the case of `N[C@H]1CC[C@H](Nc2nc(Nc3ccc(-n4cnnc4)cc3)c3ncn(C4CCCC4)c3n2)CC1`, the figures for the GI50 in the series with EOL1 [1], with K562 and in the series with HCC827 were 0.005 µM, 1.12 µM and 0.865 µM, respectively. The GI50 at 72 h amounted to 0.671 µM in series [3] and 12.8 µM in series [4]. Also, the Stability entry in series [6] is reported as “Unstable”.
With `N[C@H]1CC[C@H](Nc2nc(Nc3ccc(CN4CCOCC4)cc3)c3ncn(C4CCCC4)c3n2)CC1`, the GI50 was 0.007 µM in the series with EOL1 [1], 1.12 µM in the series on K562 and 1.01 µM with HCC827. The results for the GI50 at 72 h in [3] and in [4] were 0.82 µM and 12.3 µM, respectively. The result in the series with EOL1 [7] and with EOL1 [8] was Active.
Regarding `N[C@H]1CC[C@H](Nc2nc(Nc3ccccc3CN3CCOCC3)c3ncn(CCCO)c3n2)CC1`, the values for the 50% growth inhibitory concentration (GI50) in the series on EOL1 [1], with K562 and in the series on HCC827 were 10.6 µM, over 40 µM and over 40 µM, respectively. This compound showed a pIC50 in series [2] of under 4.70. The GI50 at 72 h in series [3] and in [4] was over 40 µM in each case. Further, in series [5], the RatioGI50 is over 4.
Take `Cc1ccc(NC(=O)c2ccc(CN3CCN(C)CC3)cc2)cc1Nc1nccc(-c2cccnc2)n1` [IMATINIB]: the GI50 was under 0.0005 µM in the series with EOL1 [1], 0.73 µM in the series with K562 and over 40 µM in the series with HCC827. Further, the results for the GI50 at 72 h in series [3] and in series [4] were 35.8 µM and over 40 µM, respectively. In [5], the RatioGI50 is over 80000.
With `OCCCCNc1nc(Nc2ccc(CN3CCOCC3)cc2)c2ncn(CCCO)c2n1`, the figures for the GI50 in the series with EOL1 [1], with K562 and with HCC827 were 0.294 µM, 4.74 µM and 10.6 µM, respectively. The values for the GI50 at 72 h in series [3] and in series [4] were 5.17 µM and 20.8 µM, respectively.
As for `N[C@H]1CC[C@H](Nc2nc(Nc3ccc(Oc4ncccn4)cc3)c3ncn(C4CCCC4)c3n2)CC1`, the figures for the GI50 in the series on EOL1 [1], with K562 and with HCC827 were 0.02 µM, 2.27 µM and 2.72 µM, respectively. The values for the GI50 at 72 h in series [3] and in series [4] were 1.15 µM and 16.9 µM, respectively.
The like results for `N[C@H]1CC[C@H](Nc2nc(Nc3ccc(N4CCN(Cc5ccccc5)CC4)cc3)c3ncn(C4CCCC4)c3n2)CC1` were, in that order, 0.022 µM, 0.97 µM, 0.918 µM, 0.582 µM and 10 µM.
